Results taken from patent EP0731710B1, “THYMOSINE ALPHA 1 CONTAINING COMPOSITIONS FOR THE TREATMENT OF PATIENTS HAVING DECOMPENSATED LIVER DISEASE” (ALPHA 1 BIOMEDICALS, INC., priority 1993, dated 2003).
No end group written: not given here.

Test: Tolerability / adverse effects of Thymosin alpha 1 in patients with cirrhosis and hepatic decompensation
Type: in vivo, patient
Method: Patient 2 was a person with very far-advanced cirrhosis secondary to long-standing chronic Hepatitis B infection. Their findings included jaundice, weakness, severe encephalopathy, hepato-renal syndrome with renal failure, and portal gastropathy secondary to increased portal vein pressure. They received Thymosin alpha 1 at a dose of 1.6 mg subcutaneously twice weekly under a compassionate use protocol in an attempt to cure their Hepatitis B virus infection so that they could received a liver transplant. […] Death was associated with complications of portal hypertension and cirrhosis, and not due to therapy with Thymosin alpha 1.
They were started on Thymosin alpha 1 at a dose of 1.6 mg subcutaneously twice weekly, with the intention of treating them for 26 weeks. […] However, their therapy was discontinued after 46 injections because of complications of the cirrhosis. They expired about three weeks after their last injection. Their death was attributed to bleeding esophageal varices and hepatoma.
In summary, the above three patients with cirrhosis and hepatic decompensation received Thymosin alpha 1 at a dose of 1.6 mg subcutaneously twice weekly for periods varying from 3.5 weeks to 6 months. In each case, the intent of therapy was to cure chronic Hepatitis B virus infection so that the patient could be considered for transplant. […] Two other patients, both of whom had far-advanced disease, died of complications of cirrhosis, with no evidence that Thymosin alpha 1 contributed to their deaths.

Ac-SDAAVDTSSEITTKDLKEKKEVVEEAEN [Thymosin alpha 1]
side effects (Patient 2, 1.6 mg subcutaneously twice weekly, 3 1/2 weeks of therapy): no side effects
adverse effects (Patient 3, 1.6 mg subcutaneously twice weekly, 46 injections): no adverse effects
adverse effects due to Tα1 (three patients with cirrhosis and hepatic decompensation, 1.6 mg subcutaneously twice weekly for 3.5 weeks to 6 months): None of the patients reported any adverse effects
